Data on two molecules can be found in patent publication US20200188297A1, “LXR Agonist in Topical Ophthalmic Formulation for Treatment of Dry-Eye Disorder” (eyeNOS, Inc., priority 2018, published 2020).

The target in one experiment is retinoid X receptor. The conditions noted are these: read-out: EC50 for activation of the retinoid X receptor; cited from earlier work.
Experiment [1] concerns human corneal epithelial cells (HCE-T). Briefly: Multiplex cytokine expression analysis, hyperosmolar stress insult. Format: cell-based. The conditions noted are these: 200 nM, preincubation 1 hour, 600 mOsm for 20 hours. Here is the method:
The anti-inflammatory effects of T0901317 were studied on in-vitro cell culture of human corneal epithelial cells (HCE-T). HCE-T cells were grown in DMEM/F12 (1:1), 5% fetal bovine serum, penicillin-streptomycin, […] insulin, 10 ng/ml human recombinant epidermal growth factor and 0.5% dimethyl sulfoxide in 5% CO2 at 37° C. To simulate dry-eye conditions, the cells were exposed to hyperosmolar stress insult as described in Chen et al, “Hyperosmolarity-Induced Cornification of Human Corneal Epithelial Cells Is Regulated by JNK MAPK” (February 2008) Investigative Ophthalmology & Visual Science, 49(2):539-549. Confluent HCE-T were passaged into 12-well plates containing KSFM media (keratinocyte-SFM media) for 24 hours, and then NaCl was added to wells in concentrations to produce media osmolarities in the range of 350-800 mOsm. Multiplex cytokine expression analysis was performed to determine the anti-inflammatory effects of T0901317 (at 200 nM).

In experiment [2] the test system is liver X receptors (LXRα, LXRβ). The conditions noted are these: cited from earlier work.
The test system of experiment [3] is human corneal epithelial cells (HCE-T). Briefly: Multiplex cytokine expression analysis, LPS-induced secretion. The conditions noted are these: LPS 10 ng/ml, preincubation with compound. Format: cell-based. Here is the method: The anti-inflammatory effects of T0901317 were studied on in-vitro cell culture of human corneal epithelial cells (HCE-T). […] Multiplex cytokine expression analysis was performed to determine the anti-inflammatory effects of T0901317 (at 200 nM). […] Lipopolysaccharide (LPS)-induced (10 ng/ml) secretion of IL-17, IL-18, and IFNγ was also examined. […] Topical application is not expected to result in activation of the pregnane X receptor (PXR), supporting the notion that the anti-inflammatory effects observed here, both in-vivo and in-vitro, can be attributed to LXR activation.

Experiment [4] relates to human corneal epithelial (HCE-T) cells. Briefly: ZO-1 immunocytochemistry (barrier function) under hyperosmolar stress. In kind it is cell-based. The conditions noted are these: 0.05 μM in DMSO, pre-treated one hour; 50 mM NaCl overnight; FIG. 20. Here is the method: The corneal epithelium serves as a physiological barrier. However, inflammation and the ensuing oxidative stress can impair barrier function and contribute to the exacerbation of inflammatory processes and increase susceptibility to other ocular surface conditions, such as corneal keratitis. The effect of ouabagenin on the barrier function of human corneal epithelial (HCE-T) cells was tested in in-vitro experiments. The cells were seeded at 25,000 cells/well in 8-chamber slides. Cells were incubated for 3 days at 37° C. until confluent. Cells were pre-treated with DMSO (vehicle) or ouabagenin (0.05 μM in DMSO). One hour later, cells received treatment of 0 (media), 25, 50, or 75 mM NaCl to mimic hyperosmolar conditions. Cells were incubated overnight at 37° C.
Zona occludens 1 (ZO-1) is a tight junction protein that is involved in the barrier function of corneal epithelium. The presence of ZO-1 (or absence thereof) is an indicator of the health of this barrier. In this experiment, immunocytochemistry for ZO-1 was performed on the HCE-T cells after the overnight incubation. Slides were imaged under a fluorescent microscope.

Read-outs that look alike come from different tables or passages of the source.

Consider `O=S(=O)(c1ccccc1)N(CC(F)(F)F)c1ccc(C(O)(C(F)(F)F)C(F)(F)F)cc1` [T0901317], for which the EC50 (as a rule, the midpoint of the concentration-response curve) on retinoid X receptor was 5 µM. Besides, the “hyperosmolar stress-induced secretion of IL-12” value in experiment [1] (FIG. 19B) is “fully suppressed”. In addition, the “hyperosmolar stress-induced secretion of IL-17” value in experiment [1] (FIG. 19C) was “fully suppressed”. The LXR subtype selectivity result in experiment [2] is recorded as “selective for the LXRα subtype”. Moreover, in experiment [3] (FIG. 19D), the “LPS-induced secretion of IL-17” value was “suppressed”. Further, the “LPS-induced secretion of IL-18” value in experiment [3] (FIG. 19E) is listed as “suppressed”. For the same molecule, in experiment [3] (FIG. 19F), the “LPS-induced secretion of IFNγ” value was “suppressed”.
Regarding `C[C@]12C[C@@H](O)[C@H]3[C@@H](CC[C@]4(O)C[C@@H](O)C[C@@H](O)[C@]34CO)[C@@]1(O)CC[C@@H]2C1=CC(=O)OC1` [ouabagenin], the “ZO-1 at the cell junctions (barrier function)” value in experiment [4] is recorded as “protected against this loss of ZO-1 barrier function”. Further, in experiment [2] (literature reports), the LXR subtype selectivity result is on record as “LXRβ-subtype specific agonist”.
